Data as given in patent US20200371122A1, “BIOMARKER FOR SENESCENT CELLS” (Buck Institute for Research on Aging, priority 2017, published 2020).

Test system: IMR-90 fibroblasts
Test: Sensitisation to IR-induced senescence by senescence-equivalent dose of 15d-PGJ2
Assay type: cell-based, human
Conditions: 1.4 μM
Source text: Senescence was induced by irradiation with 10 Gy of ionizing radiation. Non-senescent controls (proliferating or quiescent) were placed in the irradiator for an identical period of time without turning on the irradiator. Oncogene-induced senescence was induced via lentiviral overexpression of HRAS^V12, as described previously (Wiley et al. (2016) Cell Metab. 23: 303-314).
SA-Bgal activity was detected as described previously (Dimri et al. (1995) Proc. Natl. Acad. Sci. USA, 92: 9363-9367) using a commercial kit (Biovision).
For EdU labeling, cells were cultured with EdU (10 μM) for 24 h, fixed in 4% buffered formalin for 10 min, washed in PBS, and permeabilized in 0.5% Triton X-100 for 30 min. Cells were treated as instructed by the manufacturer Life Technologies Cat #C10337). For immunofluorescence, cells were blocked in 10% normal goat serum for 30 min, washed, and incubated overnight in antibodies to Ki67 (Abcam) or cleaved caspase 3 (Cell Signaling). Cell were then washed, incubated in fluorescent secondary antibodies, and mounted using vectashield mounting medium with DAPI.

Q: `CCCCC/C=C/C=C1/C(=O)C=C[C@@H]1C/C=C\CCCC(=O)O` [15d-PGJ2] was tested. Which “SA-beta-galactosidase, EdU incorporation and cell number versus DMSO” value (10 Gy IR, 10 days) did it give?
A: The value was “no differences”.

Q: What about the “senescence versus control cells” value (lower doses of IR, 10 days) of the same compound?
A: The value was “more senescent relative to control cells”.

Q: What about the induction of senescence (no IR) of the same compound?
A: The induction of senescence was “did not induce senescence on its own”.
